{"source": "patent US10940113B2", "about": "“Pharmaceutical composition for colon targeting, method for treating a colon-related disease using the same and preparation method thereof” (priority 2017, dated 2021)", "system": "distal colitis induced via intracolonic injection of DNBS", "assay": "DNBS-induced distal colitis animal test", "format": "in vivo, Male Wistar mice", "details": "2 CAP qd × 7, PO, sacrificed at Day 8", "experimental": "[…] were starved for 24 hr, and distal colitis was induced via intracolonic injection of DNBS (2,4-dinitrobenzene sulfonic acid, 30 mg in 0.5 mL ethanol (30%)). Then, 2 mL air was injected after instillation of the enema to ensure the solution was remained in the colon. The test substance (the pharmaceutical composition of Embodiment 3-1) and mesalamine were oral administered 24 hr and 2 hr prior to the DNBS injection, followed by administering one dose a day, and 5 days. The total doses of the test substance and mesalamine were 7 doses. The body weight, fecal occult blood and fecal consistency were recorded every day during the experiment. The animals were sacrificed at Day 8. The adhesions of colon and other organs were observed after abdominal opening, the colitis still can be observed, and the colon was carried out and weighted."}
{"smiles": "Nc1ccc(O)c(C(=O)O)c1", "note": "[Mesalamine, mesalamine]", "values": [{"measurement": "Adhesion", "result": "0.0 ± 0.0"}, {"measurement": "Colon width", "result": "1.0 ± 0.0"}, {"measurement": "Strictures", "result": "2.6 ± 0.2"}, {"measurement": "Ulcers/Inflammation", "result": "3.2 ± 0.54"}]}
